# From PMC8778133 (Pharmaceutics, 2021)
# Several values for one entry are separate records, joined by “and”; a condition that tells them apart may be missing. Equal values may be shown once. Read-outs that look alike come from different tables or passages of the source.
# What was measured:
# [1] = parameters: method as in doi:10.1016/0378-5173(90)90130-V, PMID 16307530; details: cited from earlier work
# [2] = Solubility by the shake-flask method; type: physicochemical; details: for solubility at 24 h: universal buffer
# Description: A universal buffer composed of 75 mM trifluoroacetic acid, 25 mM acetic acid, and 25 mM ethylenediamine, adjusted with 1M sodium hydroxide up to pH 7.5, was used (ionic strength, I = 0.1 M). Samples were prepared by adding a weighted amount of solid (enough to obtain saturated solutions) to 2 mL of the buffered solution. After this, solutions were shaken at a controlled temperature (25.0 ± 0.2 °C) for 24 h, but, after 4 h of agitation, the pH was checked and, if necessary, readjusted to the initial value with small amounts of 1 M hydrochloric acid or 1 M sodium hydroxide solution. After the 24 h stirring, samples were left to stand for equilibration for 24 more hours [32, 33, 34]. The pH was measured and phases separated by centrifugation in a Rotanta 460RS centrifuge from Hettich Lab Technology (Tuttlingen, Germany), at a controlled temperature (25 °C) and 3500 rpm for 30 min.
# The remaining solid was dried under vacuum for 30 min and stored at 4 °C until XRPD analysis. […] A Shimadzu (Kyoto, Japan) liquid chromatograph, equipped with two LC-10AD pumps and a SPD-10AV detector, was used. Temperature was controlled at 25.0 ± 0.1 °C with a CTO-10AS column oven. The column was a Symmetry C18, with 5 μm particle size and dimensions of 4.6 × 150 mm from Waters (Milford, MA, USA). Mobile phase was composed of 20 mM phosphate buffer at pH 7 (A) and acetonitrile (B). Elution was in gradient mode (time (min), %B: 0,3; 1,3; 5,25; 10,25; 12,3; 15,3). […] To quantify, six standard solutions were prepared in the linear range (5–60 mgL^−1 for both compounds). Standards were dissolved in an acetonitrile/water mixture at a proportion of 25/75 (v/v). In a first attempt, saturated supernatants were injected directly, and, when necessary, they were appropriately diluted in water to ensure that they fit within the range of calibration.
# [3] = pH of saturated Norfloxacin solutions in dissolution media (pHx=0 effect test); type: physicochemical; details: for pH of saturated solution after 24 h: agitation
# Description: However, instead of adding a Norfloxacin tablet, the powder was directly weighted into the vials until saturated solutions of Norfloxacin were obtained. Then, the solutions were allowed to stand under agitation at 25 °C for 24 h. After this, the pH of the solutions was measured again. […] This effect is more evident for the API dissolution than for the cocrystal because the amount of API released in the cocrystal is lower compared to the pure API.
# [4] = Intrinsic dissolution rate, small-scale dissolution assay at single GIT pH values; type: physicochemical; details: for % Dissolved at t = 30 min / Dissolution Rate: SD in brackets; for Dissolution Rate: fitting of Equation (1), kdS
# Description: Dissolution tests were performed with a small-scale dissolution assay installed in the GlpKaTM titrator. […] Then, 1.5 mL of 0.125 M acetate-phosphate buffer at pH 1.6 was introduced into the vial without wetting the tablet surface. […] The final volume was 15 mL. UV-visible absorption spectra were recorded every 30 s with a fiber-optic probe immersed in the solution. […] Spectral regions where the signal was saturated (A > 1.5) were discarded. Dissolution rate was obtained through the fitting of the first-order Noyes-Whitney exponential equation to the data:(1) [[…]0)) In this equation, [X]t is the weight (g) of compound in solution at a given time (min); […] Dissolution rate is calculated through a refinement process in which S, kd and t0 optimal values are obtained by minimizing the root mean square deviation between the modeled concentrations and the measured ones.
# [5] = pKa determination by potentiometric titration; type: physicochemical; details: for pKa: 0.15 M KCl aqueous solution
# Description: The sample was pre-alkalinized to pH 12 with 0.5 M standardized KOH. Then, it was titrated with standardized 0.5 M HCl. All titrations were carried out at 0.15 M ionic strength and a temperature of 25 °C, under a nitrogen atmosphere. […] The Debye–Hückel equation was used to obtain the thermodynamic pKa values.
# [6] = 4-sector pH dissolution test (pH stepped from 2.0 to 7.4); type: physicochemical; details: 4-sector test
# Description: To perform the 4-sector dissolution rate determinations, the same procedure was followed, but, after adjusting the initial pH to 2.0 and monitoring dissolution for 30 min at this pH, the pH was automatically raised to the next value by addition of KOH. Then, dissolution was monitored again for 30 more minutes. This stepping procedure was repeated until dissolution in the four sectors was covered.
# [7] = water, 25 °C and 0 ionic strength, potentiometry, given as ref 37 (authors' unpublished work), read-out: pKa (first)
SMILES,Final Solid Form ([4]; after dissolution at pH 2.0),Final Solid Form ([4]; after dissolution at pH 4.0),Final Solid Form ([4]; after dissolution at pH 5.5),Final Solid Form ([4]; after dissolution at pH 7.4),% Dissolved at t = 30 min ([4]; pH 2.0),Dissolution Rate ([4]; pH 2.0),% Dissolved at t = 30 min ([4]; pH 4.0),Dissolution Rate ([4]; pH 4.0),% Dissolved at t = 30 min ([4]; pH 5.5),Dissolution Rate ([4]; pH 5.5),% Dissolved at t = 30 min ([4]; pH 7.4),Dissolution Rate ([4]; pH 7.4),"pKa [5, 7]",also measured
CCn1cc(C(=O)O)c(=O)c2cc(F)c(N3CCNCC3)cc21 [Norfloxacin],Tetrahydrate,Tetrahydrate,Tetrahydrate,Tetrahydrate,100% and 101.2 (6.3) %,4.16 (0.73) μg min^−1,71% and 71.3 (6.9) %,0.79 (0.03) μg min^−1,23% and 23.0 (5.2) %,0.19 (0.02) μg min^−1,9.4 (1.0) %,0.06 (0.01) μg min^−1,6.35 ± 0.04,"oral bioavailability [1]: ~ 40%; solid phase obtained after the shake-flask experiments (XRPD) ([2]; aqueous buffer, 24 h stirring + 24 h standing, 25 °C): tetrahydrate; intrinsic solubility of the zwitterionic form (S0) ([2]; calculated from shake-flask solubility and Equation (7), pKa' at I = 0.1 M, corresponds to tetrahydrate form): 319 ± 19 µg/mL; solubility at 24 h ([2]; pH 7.25, shake-flask, 25 °C, I = 0.1 M, final pH 7.25, n = 3, solid transformed to tetrahydrate, read-out: solubility): 394 ± 18 µg/mL; solubility at 24 h ([2]; pH 7.5, calculated from shake-flask solubility and Equation (7), pKa' at I = 0.1 M, corresponds to tetrahydrate form, read-out: intrinsic solubility of the zwitterionic form (S0)): 320 ± 20 µg/mL; pH of saturated solution after 24 h ([3]; dissolution medium initially at pH 4.0, 25 °C): 5.8; pH of saturated solution after 24 h ([3]; dissolution medium initially at pH 5.5, 25 °C): 6.2; pH of saturated solution after 24 h ([3]; dissolution medium initially at pH 7.4, 25 °C): 7.4; positive pH increment ([3]; initial pH 4.0): 1.8 units; positive pH increment ([3]; initial pH 5.5): 0.7 units; positive pH increment ([3]; initial pH 7.4): 0 units; % Dissolved at t = 30 min ([4]; pH 2.0, listed as API): complete; % Dissolved at t = 30 min ([4]; pH 7.4, listed as API): 7%; percentage of compound in the zwitterionic form ([5]; pH 5.5, species distribution (Figure S12)): around 12%; maximum percentage of the zwitterionic form ([5]; pH 7.5, species distribution from pKa values (Figure S12)): around 90%; pKa (second) ([5]; water, 25 °C and 0 ionic strength, potentiometry, given as ref 37 (authors' unpublished work)): 8.80 ± 0.04"
CCn1cc(C(=O)O)c(=O)c2cc(F)c(N3CCNCC3)cc21.Oc1cccc(O)c1 [Norfloxacin–resorcinol cocrystal],Monohydrate,Monohydrate,Monohydrate,Monohydrate,94.4 (1.1) %,2.53 (1.63) μg min^−1,91.2 (0.9) %,0.70 (0.15) μg min^−1,48.0 (12.5) %,0.33 (0.04) μg min^−1,9.6 (1.0) %,0.19 (0.10) μg min^−1,–,"percentage of the API remaining in the solution ([6]; after pH increased to 7.4 (sudden precipitation)): 80%; percentage of Norfloxacin in the solution ([6]; from pH 2.0 to pH 5.5, 30 min at each pH): ~90%; dissolution in the first sector ([6]; pH 2.0, 30 min): almost complete dissolution; % Dissolved at t = 30 min ([4]; pH 5.5, listed as cocrystal): 48%; % Dissolved at t = 30 min ([4]; pH 7.4, listed as cocrystal): 7%"
"Oc1cccc(O)c1 [Resorcinol, resorcinol]",–,–,–,–,–,–,–,–,–,–,–,–,9.47 ± 0.02,"pKa ([5]; water, 25 °C and 0 ionic strength, potentiometry, given as ref 37 (authors' unpublished work), read-out: pKa (second)): 11.6 ± 0.04"
